Experimental data from PMC6017976, “Enzyme Kinetics and Molecular Docking Studies on Cytochrome 2B6, 2C19, 2E1, and 3A4 Activities by Sauchinone” (Molecules : A Journal of Synthetic Chemistry and Natural …, 2018).
“And” between values parts separate entries of the source, which are not always exact repeats. Equal entries are not always repeated.

Columns and labels:
CYP2D6 [1] = target: T1, CYP2D6 (Homo sapiens, UniProt P10635); assay: Reversible inhibition (RI) of CYP2D6 activity in HLMs (cocktail probe assay); assay type: in vitro ADME; details: 5 μM dextromethorphan, 30 min incubation
T1 construct: pooled human liver microsomes from a mixed pool of 50 donors; tissue BD Gentest Co. 452156; host or cells: human liver microsomes, pool of 50 donors

CYP2E1 [2] = target: T2, CYP2E1 (Homo sapiens, UniProt P05181); assay: Reversible inhibition (RI) of CYP2E1 activity in HLMs (cocktail probe assay); assay type: in vitro ADME; details: chlorzoxazone hydroxylation, 50 μM chlorzoxazone, 30 min incubation
T2 construct: pooled human liver microsomes from a mixed pool of 50 donors; tissue BD Gentest Co. 452156; host or cells: human liver microsomes, pool of 50 donors

CYP2B6 [3] = target: T3, CYP2B6 (Homo sapiens, UniProt P20813); assay: Time-dependent inhibition (TDI) IC50 shift assay on CYP2B6 in HLMs; assay type: in vitro ADME; details: for IC50: HLMs, 10 min incubation
T3 construct: pooled human liver microsomes from a mixed pool of 50 donors; tissue BD Gentest Co. 452156; host or cells: human liver microsomes, pool of 50 donors
T3 sequence (P20813 1-491): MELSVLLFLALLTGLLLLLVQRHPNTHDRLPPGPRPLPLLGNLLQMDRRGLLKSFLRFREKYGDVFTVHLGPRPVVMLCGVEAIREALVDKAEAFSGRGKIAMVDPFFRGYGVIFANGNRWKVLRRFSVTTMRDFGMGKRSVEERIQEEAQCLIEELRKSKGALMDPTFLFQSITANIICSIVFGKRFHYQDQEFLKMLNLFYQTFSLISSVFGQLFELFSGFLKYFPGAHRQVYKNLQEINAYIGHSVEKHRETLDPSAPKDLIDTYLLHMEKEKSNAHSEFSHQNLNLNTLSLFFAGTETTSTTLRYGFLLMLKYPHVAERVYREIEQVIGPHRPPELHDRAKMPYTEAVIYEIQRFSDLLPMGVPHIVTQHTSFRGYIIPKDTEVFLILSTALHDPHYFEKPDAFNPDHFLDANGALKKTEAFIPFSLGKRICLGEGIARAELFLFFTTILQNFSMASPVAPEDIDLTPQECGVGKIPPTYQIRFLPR

CYP3A4 [4] = target: T4, CYP3A4 (Homo sapiens, UniProt P08684); assay: Reversible inhibition (RI) of CYP3A4 activity in HLMs (cocktail probe assay); assay type: in vitro ADME; details: testosterone hydroxylation, 50 μM testosterone, 30 min incubation
T4 construct: pooled human liver microsomes from a mixed pool of 50 donors; tissue BD Gentest Co. 452156; host or cells: human liver microsomes, pool of 50 donors

CYP2C9 [5] = target: T5, CYP2C9 (Homo sapiens, UniProt P11712); assay: Reversible inhibition (RI) of CYP2C9 activity in HLMs (cocktail probe assay); assay type: in vitro ADME; details: 100 μM tolbutamide, 30 min incubation
T5 construct: pooled human liver microsomes from a mixed pool of 50 donors; tissue BD Gentest Co. 452156; host or cells: human liver microsomes, pool of 50 donors

CYP2E1 [6] = target: T2, CYP2E1; assay: Time-dependent inhibition (TDI) IC50 shift assay on CYP2E1 in HLMs; assay type: in vitro ADME; details: for IC50: HLMs, 10 min incubation
CYP2C19 [7] = target: T6, CYP2C19 (Homo sapiens, UniProt P33261); assay: Enzyme kinetic assay (Dixon plot, Ki) for CYP2C19 in HLMs; assay type: in vitro ADME
T6 construct: pooled human liver microsomes from a mixed pool of 50 donors; tissue BD Gentest Co. 452156; host or cells: human liver microsomes, pool of 50 donors
Method: (§1) Based on IC50 values, the Kis of sauchinone for CYP2B6, 2C19, 2E1, and 3A4 were determined. Different concentrations (20, 50, and 200 μM) of sauchinone were used. Other procedures were similar to those mentioned above regarding the reversible inhibitory effects of sauchinone. The inhibitory characteristics of sauchinone were initially estimated by nonlinear least squares regression analysis. Its Ki values were determined by Dixon plots.

CYP2C19 [8] = target: T6, CYP2C19; assay: Reversible inhibition (RI) of CYP2C19 activity in HLMs (cocktail probe assay); assay type: in vitro ADME; details: S-mephenytoin hydroxylation, 100 μM S-mephenytoin, 30 min incubation
CYP2C19 [9] = target: T6, CYP2C19; assay: Time-dependent inhibition (TDI) IC50 shift assay on CYP2C19 in HLMs; assay type: in vitro ADME; details: for IC50: HLMs, 10 min incubation
CYP1A2 [10] = target: T7, CYP1A2 (Homo sapiens, UniProt P05177); assay: Reversible inhibition (RI) of CYP1A2 activity in HLMs (cocktail probe assay)
T7 sequence (P05177 1-516): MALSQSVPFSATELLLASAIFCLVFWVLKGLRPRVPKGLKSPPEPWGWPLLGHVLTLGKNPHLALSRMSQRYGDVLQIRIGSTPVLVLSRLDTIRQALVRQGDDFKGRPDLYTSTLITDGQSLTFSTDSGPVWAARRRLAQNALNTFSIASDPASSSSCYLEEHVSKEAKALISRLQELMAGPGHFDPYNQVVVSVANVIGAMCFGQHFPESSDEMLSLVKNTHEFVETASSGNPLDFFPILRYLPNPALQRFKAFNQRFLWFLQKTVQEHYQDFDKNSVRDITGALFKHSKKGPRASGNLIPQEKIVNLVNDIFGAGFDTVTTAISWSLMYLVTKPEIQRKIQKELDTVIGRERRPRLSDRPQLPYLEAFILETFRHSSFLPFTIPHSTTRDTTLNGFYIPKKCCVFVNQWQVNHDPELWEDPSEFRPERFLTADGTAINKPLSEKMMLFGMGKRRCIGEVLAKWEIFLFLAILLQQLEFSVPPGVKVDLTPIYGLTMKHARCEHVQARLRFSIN

CYP2A6 [11] = target: T8, CYP2A6 (Homo sapiens, UniProt P11509); assay: Time-dependent inhibition (TDI) IC50 shift assay on CYP2A6 in HLMs; assay type: in vitro ADME; design: pooled human liver microsomes from a mixed pool of 50 donors; tissue BD Gentest Co. 452156; host or cells: human liver microsomes, pool of 50 donors; details: 10 min incubation
T8 sequence (P11509 1-494): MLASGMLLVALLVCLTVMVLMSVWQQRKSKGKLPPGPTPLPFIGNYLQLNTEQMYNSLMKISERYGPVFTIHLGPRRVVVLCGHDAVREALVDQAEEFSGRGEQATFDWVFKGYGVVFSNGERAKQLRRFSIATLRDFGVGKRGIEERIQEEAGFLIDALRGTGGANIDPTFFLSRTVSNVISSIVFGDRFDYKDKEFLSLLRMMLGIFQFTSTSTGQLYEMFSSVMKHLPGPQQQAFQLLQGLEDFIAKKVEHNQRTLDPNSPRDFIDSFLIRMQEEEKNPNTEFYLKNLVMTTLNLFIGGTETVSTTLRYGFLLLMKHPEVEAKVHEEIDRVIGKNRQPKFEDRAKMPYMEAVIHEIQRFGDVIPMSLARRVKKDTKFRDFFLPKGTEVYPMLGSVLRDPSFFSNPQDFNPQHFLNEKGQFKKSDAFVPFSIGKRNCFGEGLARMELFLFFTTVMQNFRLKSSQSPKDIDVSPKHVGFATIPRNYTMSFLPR

CYP1A2 [12] = target: T7, CYP1A2; assay: Time-dependent inhibition (TDI) IC50 shift assay on CYP1A2 in HLMs; assay type: in vitro ADME; design: […]; tissue BD Gentest Co. 452156; details: 10 min incubation
CYP2B6 [13] = target: T3, CYP2B6; assay: Reversible inhibition (RI) of CYP2B6 activity in HLMs (cocktail probe assay); assay type: in vitro ADME; details: bupropion hydroxylation, 50 μM bupropion, 30 min incubation
CYP2D6 [14] = target: T1, CYP2D6; assay: Time-dependent inhibition (TDI) IC50 shift assay on CYP2D6 in HLMs; assay type: in vitro ADME
CYP2C9 [15] = target: T5, CYP2C9; assay: Time-dependent inhibition (TDI) IC50 shift assay on CYP2C9 in HLMs; assay type: in vitro ADME; details: 10 min incubation
CYP2E1 [16] = target: T2, CYP2E1; assay: Enzyme kinetic assay (Dixon plot, Ki) for CYP2E1 in HLMs; assay type: in vitro ADME
Method: as §1

CYP3A4 [17] = target: T4, CYP3A4; assay: Time-dependent inhibition (TDI) IC50 shift assay on CYP3A4 in HLMs; assay type: in vitro ADME; details: for IC50: HLMs, 10 min incubation
CYP3A4 [18] = target: T4, CYP3A4; assay: Enzyme kinetic assay (Dixon plot, Ki) for CYP3A4 in HLMs; assay type: in vitro ADME
Method: as §1

CYP2A6 [19] = target: T8, CYP2A6; assay: Reversible inhibition (RI) of CYP2A6 activity in HLMs (cocktail probe assay)
CYP2B6 [20] = target: T3, CYP2B6; assay: Enzyme kinetic assay (Dixon plot, Ki) for CYP2B6 in HLMs; assay type: in vitro ADME
Method: as §1

T1 sequence (P10635 whole entry): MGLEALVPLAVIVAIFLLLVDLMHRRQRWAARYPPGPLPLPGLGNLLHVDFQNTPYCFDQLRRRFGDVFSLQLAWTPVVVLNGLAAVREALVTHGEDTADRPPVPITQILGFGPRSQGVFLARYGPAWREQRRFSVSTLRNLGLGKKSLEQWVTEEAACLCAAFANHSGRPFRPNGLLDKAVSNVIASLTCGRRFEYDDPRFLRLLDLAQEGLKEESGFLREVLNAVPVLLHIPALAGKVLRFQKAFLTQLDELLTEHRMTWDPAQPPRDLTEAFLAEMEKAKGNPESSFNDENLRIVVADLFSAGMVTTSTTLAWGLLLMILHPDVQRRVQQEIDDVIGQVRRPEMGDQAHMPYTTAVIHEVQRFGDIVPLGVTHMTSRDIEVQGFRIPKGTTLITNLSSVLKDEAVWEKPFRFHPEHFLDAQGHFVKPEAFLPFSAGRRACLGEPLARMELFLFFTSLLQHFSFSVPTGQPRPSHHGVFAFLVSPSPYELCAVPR
T2 sequence (P05181 whole entry): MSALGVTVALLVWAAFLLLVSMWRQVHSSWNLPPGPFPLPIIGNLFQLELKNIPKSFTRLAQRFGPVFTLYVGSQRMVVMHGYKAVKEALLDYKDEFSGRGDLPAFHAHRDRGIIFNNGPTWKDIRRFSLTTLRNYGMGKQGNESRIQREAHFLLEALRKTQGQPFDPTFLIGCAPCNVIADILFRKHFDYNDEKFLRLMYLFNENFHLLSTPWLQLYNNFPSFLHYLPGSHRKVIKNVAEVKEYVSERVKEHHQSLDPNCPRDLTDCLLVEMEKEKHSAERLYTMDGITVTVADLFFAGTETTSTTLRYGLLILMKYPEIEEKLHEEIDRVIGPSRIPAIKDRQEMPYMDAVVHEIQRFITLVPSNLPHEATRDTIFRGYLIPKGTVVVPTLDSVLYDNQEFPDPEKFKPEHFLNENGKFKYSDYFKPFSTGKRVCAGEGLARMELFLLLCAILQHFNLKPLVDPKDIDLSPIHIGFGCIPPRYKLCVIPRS
T4 sequence (P08684 whole entry): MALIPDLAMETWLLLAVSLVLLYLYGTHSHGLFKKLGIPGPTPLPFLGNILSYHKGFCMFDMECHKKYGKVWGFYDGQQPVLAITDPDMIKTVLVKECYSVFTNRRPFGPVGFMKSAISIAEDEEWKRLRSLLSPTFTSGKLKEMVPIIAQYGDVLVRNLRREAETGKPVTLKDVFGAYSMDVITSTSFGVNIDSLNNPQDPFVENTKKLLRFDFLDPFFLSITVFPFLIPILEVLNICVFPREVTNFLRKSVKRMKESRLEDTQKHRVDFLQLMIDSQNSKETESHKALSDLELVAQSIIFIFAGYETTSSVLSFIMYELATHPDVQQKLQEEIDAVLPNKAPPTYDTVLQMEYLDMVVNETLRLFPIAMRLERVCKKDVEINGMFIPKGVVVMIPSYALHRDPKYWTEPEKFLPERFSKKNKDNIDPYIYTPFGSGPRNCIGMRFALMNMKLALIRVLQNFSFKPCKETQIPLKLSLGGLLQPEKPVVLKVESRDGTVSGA
T5 sequence (P11712 whole entry): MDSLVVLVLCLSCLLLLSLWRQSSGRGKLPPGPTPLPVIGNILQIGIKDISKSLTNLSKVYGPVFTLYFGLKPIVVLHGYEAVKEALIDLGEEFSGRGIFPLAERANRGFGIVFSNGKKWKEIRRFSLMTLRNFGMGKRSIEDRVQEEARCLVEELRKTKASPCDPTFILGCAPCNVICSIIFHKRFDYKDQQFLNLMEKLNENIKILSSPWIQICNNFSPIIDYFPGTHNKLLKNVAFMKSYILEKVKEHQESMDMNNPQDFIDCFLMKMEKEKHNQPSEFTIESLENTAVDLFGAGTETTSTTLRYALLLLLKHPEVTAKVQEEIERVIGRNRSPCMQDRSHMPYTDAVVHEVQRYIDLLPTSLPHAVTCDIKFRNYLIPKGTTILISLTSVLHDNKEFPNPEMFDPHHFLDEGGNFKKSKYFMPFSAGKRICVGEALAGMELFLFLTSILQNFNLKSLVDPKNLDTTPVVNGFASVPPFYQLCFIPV
T6 sequence (P33261 whole entry): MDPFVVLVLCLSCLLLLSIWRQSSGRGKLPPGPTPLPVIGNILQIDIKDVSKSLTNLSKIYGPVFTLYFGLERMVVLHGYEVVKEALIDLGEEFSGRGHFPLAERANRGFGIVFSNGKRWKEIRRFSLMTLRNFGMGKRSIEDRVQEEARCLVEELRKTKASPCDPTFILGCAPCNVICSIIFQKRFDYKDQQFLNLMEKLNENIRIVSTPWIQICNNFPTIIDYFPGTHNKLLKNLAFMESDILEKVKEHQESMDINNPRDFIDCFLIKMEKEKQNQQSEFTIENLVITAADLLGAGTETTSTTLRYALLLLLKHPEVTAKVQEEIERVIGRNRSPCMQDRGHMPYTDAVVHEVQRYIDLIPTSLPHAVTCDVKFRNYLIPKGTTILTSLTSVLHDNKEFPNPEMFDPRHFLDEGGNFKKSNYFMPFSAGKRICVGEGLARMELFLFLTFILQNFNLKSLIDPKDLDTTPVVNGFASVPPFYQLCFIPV

`C[C@@H]1[C@H]2c3cc4c(cc3O[C@@]35OCOC3=CC(=O)[C@H](C[C@H]1C)[C@@H]25)OCO4` [Sauchinone] was tested, and the IC50 (CYP2D6 [1]) was > 300 µM, the IC50 (CYP2E1 [2]) was 35.4 µM and 35.8 µM and the IC50 (CYP2B6 [3]; 0 min pre-incubation with NADPH, read-out: IC50 on CYP2B6, 0 min inactivation incubation (TDI)) was 36.4 ± 27 µM. It also gave an IC50 (CYP2B6 [3]; IC50 on CYP2B6, 30 min inactivation incubation (TDI), 30 min pre-incubation with NADPH) of 3.93 ± 5.72 µM, an IC50 shift at 10 min (CYP2B6 [3]; human, human liver microsomes, pH 7.4, probe bupropion (substrate cocktail set)) of 9.28 and an IC50 (CYP3A4 [4]) of 0.207 ± 0.193 µM. For the same compound, the IC50 (CYP2C9 [5]) was > 300 µM, the IC50 (CYP2E1 [6]; 0 min pre-incubation with NADPH, read-out: IC50 on CYP2E1, 0 min inactivation incubation (TDI)) was 105 ± 57 µM and the IC50 (CYP2E1 [6]; IC50 on CYP2E1, 30 min inactivation incubation (TDI), 30 min pre-incubation with NADPH) was 5.04 ± 1.91 µM. For the same compound, the IC50 shift at 10 min (CYP2E1 [6]; human, human liver microsomes, pH 7.4, probe chlorzoxazone (substrate cocktail set)) was 20.9, the Ki (CYP2C19 [7]; sauchinone 20, 50, 200 μM, read-out: Apparent inhibition constant (Ki) for CYP2C19) was 16.8 µM and the “Type of reversible inhibition of CYP2C19 (Dixon plot model)” value (CYP2C19 [7]; visual inspection) was “noncompetitive”. It also gave an IC50 (CYP2C19 [8]) of 3.6 ± 2.54 µM, an IC50 (CYP2C19 [9]; 0 min pre-incubation with NADPH, read-out: IC50 on CYP2C19, 0 min inactivation incubation (TDI)) of 28.5 ± 0.267 µM and an IC50 (CYP2C19 [9]; IC50 on CYP2C19, 30 min inactivation incubation (TDI), 30 min pre-incubation with NADPH) of 19.4 ± 2.92 µM. For the same compound, the IC50 shift (CYP2C19 [9]; human, human liver microsomes, pH 7.4) was 1.47, the IC50 (CYP1A2 [10]) was > 300 µM and the IC50 (CYP2A6 [11]; 0 min pre-incubation with NADPH, read-out: IC50 on CYP2A6, 0 min inactivation incubation (TDI)) was > 300 µM. The IC50 (CYP2A6 [11]; IC50 on CYP2A6, 30 min inactivation incubation (TDI), 30 min pre-incubation with NADPH) was > 300 µM, the IC50 (CYP1A2 [12]; 0 min pre-incubation with NADPH, read-out: IC50 on CYP1A2, 0 min inactivation incubation (TDI)) was > 300 µM and the IC50 (CYP1A2 [12]; IC50 on CYP1A2, 30 min inactivation incubation (TDI), 30 min pre-incubation with NADPH) was > 300 µM. For the same compound, the IC50 (CYP2B6 [13]) was 0.458 ± 0.0932 µM, the IC50 (CYP2D6 [14]; 0 min pre-incubation with NADPH, 10 min incubation, read-out: IC50 on CYP2D6, 0 min inactivation incubation (TDI)) was > 300 µM and the IC50 (CYP2D6 [14]; read-out: IC50 on CYP2D6, 30 min inactivation incubation (TDI), 30 min pre-incubation with NADPH, 10 min incubation) was > 300 µM. For the same compound, the IC50 (CYP2C9 [15]; 0 min pre-incubation with NADPH, read-out: IC50 on CYP2C9, 0 min inactivation incubation (TDI)) was > 300 µM, the IC50 (CYP2C9 [15]; IC50 on CYP2C9, 30 min inactivation incubation (TDI), 30 min pre-incubation with NADPH) was > 300 µM and the Ki (CYP2E1 [16]; sauchinone 20, 50, 200 μM, read-out: Apparent inhibition constant (Ki) for CYP2E1) was 41.7 µM. The “Type of reversible inhibition of CYP2E1 (Dixon plot model)” value (CYP2E1 [16]; visual inspection) was “noncompetitive”, the IC50 (CYP3A4 [17]; 0 min pre-incubation with NADPH, read-out: IC50 on CYP3A4, 0 min inactivation incubation (TDI)) was 24.5 ± 51.3 µM and the IC50 (CYP3A4 [17]; IC50 on CYP3A4, 30 min inactivation incubation (TDI), 30 min pre-incubation with NADPH) was 1.14 ± 2.29 µM. The IC50 shift at 10 min (CYP3A4 [17]; human, human liver microsomes, pH 7.4, probe testosterone (substrate cocktail set)) was 21.4, the Ki (CYP3A4 [18]; sauchinone 20, 50, 200 μM, read-out: Apparent inhibition constant (Ki) for CYP3A4) was 6.84 µM and the “Type of reversible inhibition of CYP3A4 (Dixon plot model)” value (CYP3A4 [18]; visual inspection) was “noncompetitive”. The IC50 (CYP2A6 [19]) was > 300 µM, the Ki (CYP2B6 [20]; sauchinone 20, 50, 200 μM, read-out: Apparent inhibition constant (Ki) for CYP2B6) was 14.3 µM and the “Type of reversible inhibition of CYP2B6 (Dixon plot model)” value (CYP2B6 [20]; visual inspection) was “noncompetitive”.
